Data as given in patent publication US11679100B2, “Methods of enhancing immunity” (The Regents of the University of California, priority 2018, dated 2023).

Legend:
Stat3 = target: T1, Stat3 (Mus musculus, UniProt P42227); test: mRNA expression in macrophages incubated with Stat3 inhibitor; format: cell-based, murine
T1 construct: endogenous in cells; host or cells: murine bone marrow derived macrophages (WT and Itgam-/-)
Protocol: Macrophage Polarization—Bone marrow derived macrophages were polarized with either IFNγ (20 ng/ml, Peprotech) plus LPS (100 ng/ml, Sigma) or LPS alone for 24 h or IL-4 (20 ng/ml, Peprotech) for 24-48 h. In some cases, macrophages were incubated with inhibitors of Stat3 ([…]) or cMyc (10058-F4, Selleck). In other experiments, BMM were treated with LLC tumor conditioned media (TCM) or 100 ng/ml TGF-β (PeproTech) for 6 h to analyze changes in protein and gene expression levels. TCM was obtained by culturing LLC in serum free media for 18 h followed by collecting the supernatant and sterile filtering prior to use. In some experiments TGF-β signaling was inhibited using SB5253324 added 30 min prior and during the 6 h stimulation. Total RNA was harvested from macrophages using the RNeasy Mini Kit (Qiagen) according to the manufacturer's instructions. Secreted protein was measured in culture supernatants by ELISA assays.
Analysis of Gene Expression—Total RNA was isolated from cells using RNeasy Mini Kit (Qiagen). cDNA was prepared using 1 μg RNA with the qScript cDNA Synthesis Kit (Quanta Biosciences) or the SuperScript III First-Strand Synthesis Kit (Invitrogen). […]

LLC tumors [1] = test: Imatinib treatment of WT and Itgam-/- mice bearing LLC tumors; format: in vivo
LLC tumors [2] = test: Gemcitabine treatment of WT and Itgam-/- mice with LLC tumors; format: in vivo
Protocol: Tumor Studies—Subcutaneous tumor studies: 5×10^5 LLC or B16 cells were injected subcutaneously into syngeneic (C57BL/6) 6- to 8-week old WT or Itgam^−/− mice (n=18). Tumors were excised at 7, 14 or 21 days, cryopreserved in OCT, lysed for RNA purification or collagenase-digested for flow cytometric analysis of CD11b+, F4/80+ and Gr1+ expression. Tumor volumes were calculated using the equation (l^2×w)/2. CL66-luc cells (0.5×10^6 cells) were suspended in 50 μL of basement membrane extract Matrigel (BD Pharmingen) in PBS (1:1) and inoculated orthotopically in the fourth mammary fat pad of female Balb/cJ mice. Tumor dimensions were measured every 2 days, and tumor volume was calculated using the equation: V (mm^3)=[…], where length is the longest diameter of the tumor and width is the shorter diameter.

T1 sequence (P42227 whole entry): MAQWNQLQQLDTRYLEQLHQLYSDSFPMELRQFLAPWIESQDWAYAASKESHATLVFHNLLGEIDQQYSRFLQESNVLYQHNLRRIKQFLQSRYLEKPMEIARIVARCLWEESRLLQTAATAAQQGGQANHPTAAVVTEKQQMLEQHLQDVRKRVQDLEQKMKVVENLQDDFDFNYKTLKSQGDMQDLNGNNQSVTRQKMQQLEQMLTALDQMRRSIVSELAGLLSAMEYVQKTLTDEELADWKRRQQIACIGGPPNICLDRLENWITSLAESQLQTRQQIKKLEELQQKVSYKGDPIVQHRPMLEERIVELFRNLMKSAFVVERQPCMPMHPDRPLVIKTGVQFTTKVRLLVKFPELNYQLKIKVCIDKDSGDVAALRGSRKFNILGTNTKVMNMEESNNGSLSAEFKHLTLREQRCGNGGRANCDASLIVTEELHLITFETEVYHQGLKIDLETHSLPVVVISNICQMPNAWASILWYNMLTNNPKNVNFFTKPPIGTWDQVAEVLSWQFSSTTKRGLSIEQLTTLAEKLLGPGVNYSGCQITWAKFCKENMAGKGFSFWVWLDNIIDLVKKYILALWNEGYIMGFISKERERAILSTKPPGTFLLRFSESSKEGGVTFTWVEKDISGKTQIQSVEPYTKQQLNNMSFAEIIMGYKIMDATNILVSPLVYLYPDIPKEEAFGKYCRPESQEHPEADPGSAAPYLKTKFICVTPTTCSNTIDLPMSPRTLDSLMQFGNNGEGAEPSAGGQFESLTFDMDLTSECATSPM

Which “Il6 expression in Itgam-/- macrophages” value (Stat3) does the source give for `C1=Cc2nc1cc1ccc([nH]1)c(-c1ccccc1)c1nc(cc3ccc([nH]3)c2-c2ccccc2)C=C1` [5,15-DPP] here?
Its value is “did not affect the high levels of Il6 expression”.

And the “immune suppressive factor expression in Itgam-/- macrophages” value (Stat3)?
Its value is “reduced to WT macrophage levels”.

With `Cc1ccc(NC(=O)c2ccc(CN3CCN(C)CC3)cc2)cc1Nc1nccc(-c2cccnc2)n1` [Imatinib, imatinib] as the compound, how does the “tumor growth and vascular normalization in Itgam-/- mice” value (LLC tumors [1]) read?
The value was “suppressed the enhanced tumor growth and increased vascular normalization observed in Itgam−/− mice”.

`Nc1ccn([C@@H]2O[C@H](CO)[C@@H](O)C2(F)F)c(=O)n1` [gemcitabine] was tested. Which “tumor growth in Itgam-/- mice versus WT mice” value (LLC tumors [2]) did it give?
Its value is “suppressed tumor growth more profoundly than gemcitabine treatment of WT mice”.
